Reference: patent publication US10905661B2, “Disulfiram and metal salt staggered oral dosing regimen and staggered-release oral unit dosage forms” (Cantex Pharmaceuticals, Inc., priority 2016, dated 2021)

Assays:
[1] = Stability of disulfiram with zinc gluconate or copper gluconate after 4 weeks at 40° C.; assay type: physicochemical; details: 4 weeks @ 40° C./75% RH; Actual Conc. 0.040 mg/mL
Description: Stability of disulfiram and zinc gluconate was tested after 4 weeks at 40° C. in 0.1 N HCl. (Table 24).

[2] = Compatibility of disulfiram and zinc gluconate in 0.1N HCl (color, precipitate); assay type: physicochemical
Description: Compatibility of disulfiram and zinc gluconate for simultaneous oral administration was assessed. […] and 40 mg of disulfiram were mixed in 50 mL volumetric flasks, and 0.1N HCl was added to the flasks. […] A control was run in parallel: 0.1N HCl solution containing 50 mg of zinc gluconate alone.

Compound	Conc. (disulfiram found) [1] [ng/mL]	color change ([2]; 25° C./ambient humidity for 2 days)	precipitate / clarity of solution ([2]; T0 and T=2 days, 25° C.)
CCN(CC)C(=S)SSC(=S)N(CC)CC [DSF, bis(diethylthiocarbamoyl) disulfide]	40000		
zinc gluconate [zinc gluconate alone]		no color change	remained clear
